Data reported in US12539292B2, “BRM targeting compounds and associated methods of use” (Arvinas Operations, Inc., priority 2018, dated 2026).

Target: T1, BRM (Homo sapiens, UniProt P51531)
T1 construct: In-Cell Western Screen of BRM Degradation in SW1573 Cells; endogenous in cells; host or cells: SW1573
Assay: In-cell Western screen of BRM degradation in SW1573 cells (Dmax and DC50)
Format: cell-based
Settings: for Dmax: SW1573, % degraded, when tested at the top concentration of between 0.3 and 10 μM, read-out: BRM Dmax (%); for DC50: target protein degradation, read-out: BRM DC50
Summary of the method: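 After adhering overnight, cells received compound for 18-20 hours. They were then washed in cold DPBS, fixed with 4% PFA for 20 min and permeabilized for 30 min. Blocking and fluorescent secondary staining followed before imaging.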

T1 sequence (P51531 whole entry): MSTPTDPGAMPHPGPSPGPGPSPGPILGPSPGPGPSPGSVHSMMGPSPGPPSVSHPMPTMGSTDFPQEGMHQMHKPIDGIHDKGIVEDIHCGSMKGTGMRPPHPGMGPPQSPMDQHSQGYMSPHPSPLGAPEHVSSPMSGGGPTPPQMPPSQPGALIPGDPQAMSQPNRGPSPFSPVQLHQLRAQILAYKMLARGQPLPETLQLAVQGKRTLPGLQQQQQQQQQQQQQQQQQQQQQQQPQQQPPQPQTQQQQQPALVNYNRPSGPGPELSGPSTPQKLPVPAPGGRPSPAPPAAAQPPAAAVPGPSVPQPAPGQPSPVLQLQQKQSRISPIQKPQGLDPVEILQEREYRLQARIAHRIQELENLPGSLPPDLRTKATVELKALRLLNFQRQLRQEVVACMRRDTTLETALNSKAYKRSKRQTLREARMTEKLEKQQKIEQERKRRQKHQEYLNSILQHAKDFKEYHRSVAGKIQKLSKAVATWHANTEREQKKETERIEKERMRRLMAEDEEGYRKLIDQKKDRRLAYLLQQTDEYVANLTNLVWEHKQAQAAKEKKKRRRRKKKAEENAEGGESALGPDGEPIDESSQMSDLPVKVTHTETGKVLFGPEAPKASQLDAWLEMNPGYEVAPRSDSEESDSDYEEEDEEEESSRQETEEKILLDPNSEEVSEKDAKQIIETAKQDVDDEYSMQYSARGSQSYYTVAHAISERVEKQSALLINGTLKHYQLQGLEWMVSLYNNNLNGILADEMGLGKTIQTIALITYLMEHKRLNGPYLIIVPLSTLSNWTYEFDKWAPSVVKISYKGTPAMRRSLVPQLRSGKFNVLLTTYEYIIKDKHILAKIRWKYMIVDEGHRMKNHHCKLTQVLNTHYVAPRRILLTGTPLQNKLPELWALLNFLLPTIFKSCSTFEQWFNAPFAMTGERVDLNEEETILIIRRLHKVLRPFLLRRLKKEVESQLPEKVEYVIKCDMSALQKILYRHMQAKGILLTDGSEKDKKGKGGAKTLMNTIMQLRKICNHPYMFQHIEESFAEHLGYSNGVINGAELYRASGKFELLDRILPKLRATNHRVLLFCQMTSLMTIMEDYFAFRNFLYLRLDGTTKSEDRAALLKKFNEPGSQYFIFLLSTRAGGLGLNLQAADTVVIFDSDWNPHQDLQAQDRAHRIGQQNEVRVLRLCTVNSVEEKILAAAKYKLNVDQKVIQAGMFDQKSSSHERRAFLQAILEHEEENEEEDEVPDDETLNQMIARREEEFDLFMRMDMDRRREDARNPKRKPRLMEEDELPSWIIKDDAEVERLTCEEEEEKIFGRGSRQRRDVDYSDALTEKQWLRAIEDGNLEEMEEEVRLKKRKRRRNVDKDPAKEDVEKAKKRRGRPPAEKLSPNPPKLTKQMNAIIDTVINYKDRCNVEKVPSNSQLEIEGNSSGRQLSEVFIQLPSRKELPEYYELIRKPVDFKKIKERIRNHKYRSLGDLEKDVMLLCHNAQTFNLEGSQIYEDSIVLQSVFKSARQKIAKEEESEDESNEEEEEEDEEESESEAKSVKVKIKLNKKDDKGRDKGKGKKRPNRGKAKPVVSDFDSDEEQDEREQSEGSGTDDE

| SMILES | Dmax | DC50 |
| --- | --- | --- |
| Cc1ncsc1-c1ccc([C@H](C)NC(=O)[C@@H]2C[C@@H](O)CN2C(=O)[C@@H](c2cc(OCCC3CCN(C(=O)[C@H]4C[C@@H](CN5CCC([C@@H](C)n6cc(-c7cc(-c8ccccc8O)nnc7N)cn6)CC5)C4)CC3)no2)C(C)C)cc1 [compound 452, (2S,4R)-1-((R)-2-(3-(2-(1-((1S,3S)-3-((4-((R)-1-(4-(3-amino-6-(2-hydroxyphenyl)pyridazin-4-yl)-1H-pyrazol-1-yl)ethyl)piperidin-1-yl)methyl)cyclobutane-1-carbonyl)piperidin-4-yl)ethoxy)isoxazol-5-yl)-3-methylbutanoyl)-4-hydroxy-N-((S)-1-(4-(4-methylthiazol-5-yl)phenyl)ethyl)pyrrolidine-2-carboxamide] | > 75% | 10 to 30 nM |
| Cc1ncsc1-c1ccc([C@H](C)NC(=O)[C@@H]2C[C@@H](O)CN2C(=O)[C@H](c2cc(OCCC3CCN(C(=O)[C@H]4C[C@H](CN5CCC([C@H](C)n6cc(-c7cc(-c8ccccc8O)nnc7N)cn6)CC5)C4)CC3)no2)C(C)C)cc1 [compound 453, (2S,4R)-1-((S)-2-(3-(2-(1-((1S,3S)-3-((4-((S)-1-(4-(3-amino-6-(2-hydroxyphenyl)pyridazin-4-yl)-1H-pyrazol-1-yl)ethyl)piperidin-1-yl)methyl)cyclobutane-1-carbonyl)piperidin-4-yl)ethoxy)isoxazol-5-yl)-3-methylbutanoyl)-4-hydroxy-N-((S)-1-(4-(4-methylthiazol-5-yl)phenyl)ethyl)pyrrolidine-2-carboxamide] | > 75% | < 2.5 nM |
| Cc1ncsc1-c1ccc([C@H](C)NC(=O)[C@@H]2C[C@@H](O)CN2C(=O)[C@@H](c2cc(OCCC3CCN(C(=O)[C@H]4C[C@H](CN5CCC([C@H](C)n6cc(-c7cc(-c8ccccc8O)nnc7N)cn6)CC5)C4)CC3)no2)C(C)C)cc1 [compound 454, (2S,4R)-1-((R)-2-(3-(2-(1-((1S,3R)-3-((4-((S)-1-(4-(3-amino-6-(2-hydroxyphenyl)pyridazin-4-yl)-1H-pyrazol-1-yl)ethyl)piperidin-1-yl)methyl)cyclobutane-1-carbonyl)piperidin-4-yl)ethoxy)isoxazol-5-yl)-3-methylbutanoyl)-4-hydroxy-N-((S)-1-(4-(4-methylthiazol-5-yl)phenyl)ethyl)pyrrolidine-2-carboxamide] |  | > 30 nM |
| Cc1ncsc1-c1ccc([C@H](C)NC(=O)[C@@H]2C[C@@H](O)CN2C(=O)[C@H](c2cc(OCCC3CCN(C(=O)[C@H]4C[C@H](CN5CCC([C@@H](C)n6cc(-c7cc(-c8ccccc8O)nnc7N)cn6)CC5)C4)CC3)no2)C(C)C)cc1 [compound 455, (2S,4R)-1-((S)-2-(3-(2-(1-((1R,3S)-3-((4-((R)-1-(4-(3-amino-6-(2-hydroxyphenyl)pyridazin-4-yl)-1H-pyrazol-1-yl)ethyl)piperidin-1-yl)methyl)cyclobutane-1-carbonyl)piperidin-4-yl)ethoxy)isoxazol-5-yl)-3-methylbutanoyl)-4-hydroxy-N-((S)-1-(4-(4-methylthiazol-5-yl)phenyl)ethyl)pyrrolidine-2-carboxamide] | > 75% | < 2.5 nM |
| Cc1ncsc1-c1ccc([C@H](C)NC(=O)[C@@H]2C[C@@H](O)CN2C(=O)[C@@H](c2cc(OCCC3CCN(C(=O)[C@H]4C[C@H](CN5CCC([C@@H](C)n6cc(-c7cc(-c8ccccc8O)nnc7N)cn6)CC5)C4)CC3)no2)C(C)C)cc1 [compound 456, (2S,4R)-1-((R)-2-(3-(2-(1-((1R,3R)-3-((4-((R)-1-(4-(3-amino-6-(2-hydroxyphenyl)pyridazin-4-yl)-1H-pyrazol-1-yl)ethyl)piperidin-1-yl)methyl)cyclobutane-1-carbonyl)piperidin-4-yl)ethoxy)isoxazol-5-yl)-3-methylbutanoyl)-4-hydroxy-N-((S)-1-(4-(4-methylthiazol-5-yl)phenyl)ethyl)pyrrolidine-2-carboxamide] |  | > 30 nM |
| Cc1ncsc1-c1ccc([C@H](C)NC(=O)[C@@H]2C[C@@H](O)CN2C(=O)[C@H](c2cc(N3CCN(CC4CCN(C[C@H]5C[C@H](Oc6cc(N7C8CCC7CN(c7cc(-c9ccccc9O)nnc7N)C8)ccn6)C5)CC4)CC3)no2)C(C)C)cc1 [compound 457, (2S,4R)-1-((2S)-2-(3-(4-((1-(((1r,3r)-3-((4-(3-(3-amino-6-(2-hydroxyphenyl)pyridazin-4-yl)-3,8-diazabicyclo[3.2.1]octan-8-yl)pyridin-2-yl)oxy)cyclobutyl)methyl)piperidin-4-yl)methyl)piperazin-1-yl)isoxazol-5-yl)-3-methylbutanoyl)-4-hydroxy-N-((S)-1-(4-(4-methylthiazol-5-yl)phenyl)ethyl)pyrrolidine-2-carboxamide] | > 75% | < 2.5 nM |
| Cc1ncsc1-c1ccc([C@H](C)NC(=O)[C@@H]2C[C@@H](O)CN2C(=O)[C@@H](c2cc(N3CCN(CC4CCN(C[C@H]5C[C@H](Oc6cc(N7C8CCC7CN(c7cc(-c9ccccc9O)nnc7N)C8)ccn6)C5)CC4)CC3)no2)C(C)C)cc1 [compound 458, (2S,4R)-1-((2R)-2-(3-(4-((1-(((1r,3r)-3-((4-(3-(3-amino-6-(2-hydroxyphenyl)pyridazin-4-yl)-3,8-diazabicyclo[3.2.1]octan-8-yl)pyridin-2-yl)oxy)cyclobutyl)methyl)piperidin-4-yl)methyl)piperazin-1-yl)isoxazol-5-yl)-3-methylbutanoyl)-4-hydroxy-N-((S)-1-(4-(4-methylthiazol-5-yl)phenyl)ethyl)pyrrolidine-2-carboxamide] | > 75% | < 2.5 nM |
| Cc1ncsc1-c1ccc([C@H](C)NC(=O)[C@@H]2C[C@@H](OP(=O)(O)O)CN2C(=O)[C@@H](c2cc(OCCN3CCC(O[C@H]4C[C@H](Oc5cc(N6C7CCC6CN(c6cc(-c8ccccc8O)nnc6N)C7)ccn5)C4)CC3)no2)C(C)C)cc1 [compound 459, (3R,5S)-1-((2R)-2-(3-(2-(4-((1r,3R)-3-((4-(3-(3-amino-6-(2-hydroxyphenyl)pyridazin-4-yl)-3,8-diazabicyclo[3.2.1]octan-8-yl)pyridin-2-yl)oxy)cyclobutoxy)piperidin-1-yl)ethoxy)isoxazol-5-yl)-3-methylbutanoyl)-5-(((S)-1-(4-(4-methylthiazol-5-yl)phenyl)ethyl)carbamoyl)pyrrolidin-3-yl dihydrogen phosphate] | > 75% | < 2.5 nM |
| COCCOCCOCCOCCOCCOCCOCCOCCOCCOCCOCCOCCOCCOCCOCCOCCOCCOCCOCCOCCOCCOCCOC(=O)CCC(=O)O[C@@H]1C[C@@H](C(=O)N[C@@H](C)c2ccc(-c3scnc3C)cc2)N(C(=O)[C@@H](c2cc(OCCN3CCC(O[C@H]4C[C@H](Oc5cc(N6C7CCC6CN(c6cc(-c8ccccc8O)nnc6N)C7)ccn5)C4)CC3)no2)C(C)C)C1 [compound 460, (3R,5S)-1-((2R)-2-(3-(2-(4-((1r,3R)-3-((4-(3-(3-amino-6-(2-hydroxyphenyl)pyridazin-4-yl)-3,8-diazabicyclo[3.2.1]octan-8-yl)pyridin-2-yl)oxy)cyclobutoxy)piperidin-1-yl)ethoxy)isoxazol-5-yl)-3-methylbutanoyl)-5-(((S)-1-(4-(4-methylthiazol-5-yl)phenyl)ethyl)carbamoyl) pyrrolidin-3-yl (2,5,8,11,14,17,20,23,26,29,32,3 5,38,41,44,47,50,53,56,59,62,65-docosaoxaheptahexacontan-67-yl) succinate] | > 75% | < 2.5 nM |
| Cc1ncsc1-c1ccc([C@H](C)NC(=O)[C@@H]2C[C@@H](O)CN2C(=O)[C@@H](c2cc(OCCN3CCC(O[C@H]4C[C@H](Oc5cccc(N6C7CCC6CN(c6cc(-c8ccccc8O)nnc6N)C7)c5)C4)CC3)no2)C(C)C)cc1 [compound 462, (2S,4R)-1-((2R)-2-(3-(2-(4-((1r,3R)-3-(3-(3-(3-amino-6-(2-hydroxyphenyl)pyridazin-4-yl)-3,8-diazabicyclo[3.2.1]octan-8-yl)phenoxy)cyclobutoxy)piperidin-1-yl)ethoxy)isoxazol-5-yl)-3-methylbutanoyl)-4-hydroxy-N-((S)-1-(4-(4-methylthiazol-5-yl)phenyl)ethyl)pyrrolidine-2-carboxamide] | > 75% | < 2.5 nM |
| Cc1ncsc1-c1ccc([C@H](C)NC(=O)[C@@H]2C[C@@H](O)CN2C(=O)[C@H](c2cc(OCCN3CCC(O[C@H]4C[C@H](Oc5nccc(N6C7CCC6CN(c6cc(-c8ccccc8O)nnc6N)C7)n5)C4)CC3)no2)C(C)C)cc1 [compound 463, (2S,4R)-1-((2S)-2-(3-(2-(4-((1r,3S)-3-((4-(3-(3-amino-6-(2-hydroxyphenyl)pyridazin-4-yl)-3,8-diazabicyclo[3.2.1]octan-8-yl)pyrimidin-2-yl)oxy)cyclobutoxy)piperidin-1-yl)ethoxy)isoxazol-5-yl)-3-methylbutanoyl)-4-hydroxy-N-((S)-1-(4-(4-methylthiazol-5-yl)phenyl)ethyl)pyrrolidine-2-carboxamide] |  | > 30 nM |
| Cc1ncsc1-c1ccc([C@H](C)NC(=O)[C@@H]2C[C@@H](O)CN2C(=O)[C@@H](c2cc(OCCN3CCC(O[C@H]4C[C@H](Oc5nccc(N6C7CCC6CN(c6cc(-c8ccccc8O)nnc6N)C7)n5)C4)CC3)no2)C(C)C)cc1 [compound 464, (2S,4R)-1-((2R)-2-(3-(2-(4-((1r,3R)-3-((4-(3-(3-amino-6-(2-hydroxyphenyl)pyridazin-4-yl)-3,8-diazabicyclo[3.2.1]octan-8-yl)pyrimidin-2-yl)oxy)cyclobutoxy)piperidin-1-yl)ethoxy)isoxazol-5-yl)-3-methylbutanoyl)-4-hydroxy-N-((S)-1-(4-(4-methylthiazol-5-yl)phenyl)ethyl)pyrrolidine-2-carboxamide] | > 75% | < 2.5 nM |
